The test system of test [1] is synthesis of LTB4 in human whole blood. The test can be described thus: Human whole blood assay (calcimycin-stimulated LTB4 synthesis). The test is classed as cell-based. To be noted: Homo sapiens; read-out: Human Whole Blood LTB4 Assay for FLAP (IC50 nM). How it is done:
Compounds are additionally tested in a human whole blood assay to determine their ability to inhibit the synthesis of LTB4 in a cellular system. Compounds are combined with heparinized human whole blood and incubated for 15 minutes at 37° C. Calcimycin (20 μM final, prepared in phosphate-buffered saline, pH 7.4) is then added and the mixture is incubated for another 30 minutes at 37° C. The samples are centrifuged for 5 min at low speed (1500×g) and the plasma layer is removed. Plasma LTB4 concentrations are then measured using an antibody-based homogenous time-resolved fluorescence method (CisBio, Bedford, Mass.).

The target of test [2] is T1, recombinant human FLAP protein (Homo sapiens, UniProt P20292).
T1 construct: made in house; host or cells: Sf9 insect cells (membrane fraction, 100,000 x g pellet)
T1 sequence (P20292 1-161): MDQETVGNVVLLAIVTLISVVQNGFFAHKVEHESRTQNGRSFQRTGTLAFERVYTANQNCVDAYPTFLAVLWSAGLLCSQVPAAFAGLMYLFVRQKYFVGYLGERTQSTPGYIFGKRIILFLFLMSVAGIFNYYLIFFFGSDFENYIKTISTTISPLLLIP
Nature of the test: FLAP binding assay (Scintillation Proximity Assay, displacement of [125I]L-691,831). The settings on record: read-out: Human FLAP SPA Binding (IC50 nM). How it is done:
Compounds are assessed for the ability to bind to FLAP in a binding assay that measures compound-specific displacement of an iodinated (^125I) FLAP inhibitor via a Scintillation Proximity Assay format (adapted from S. Charleson et al., Mol. Pharmacol., 1992, 41, 873-879).
Cell pellets produced from sf9 insect cells expressing recombinant human FLAP protein are resuspended in buffer A [15 mM Tris-HCl (pH 7.5), 2 mM MgCl2, 0.3 mM EDTA, 1 mM PMSF]. The cells are lysed with a Dounce homogenizer and the material is centrifuged at 10,000×g for 10 minutes. The supernatant is then collected and centrifuged at 100,000×g for 60 minutes. To prepare membrane protein for an assay, an aliquot of the 100,000×g pellet is resuspended in 1 ml of buffer A, Dounce homogenized, and finally subjected to polytron mixing (30 seconds). Membrane protein (25 μl, 5 μg) is mixed with WGA SPA beads (Amersham) and stirred for 1 h. To an assay plate (Perkin Elmer FlexiPlate) is added 25 μl of test compound prepared in Binding buffer [100 mM Tris (pH 7.5), 140 mM NaCl, 5% glycerol, 2 mM EDTA, 0.5 mM TCEP, 0.05% Tween 20], 25 μl of [^125I]L-691,831 (an iodinated analog of MK-591, Charleson et al. Mol. Pharmacol., 41, 873-879, 1992) and finally 50 μl of the bead/protein mixture. (final concentrations: beads, 200 μg/well; protein, 5 μg/well; [^125I] probe, 0.08 nM/well (17 nCi/well). The plates are shaken for 2 h before reading on a Microbeta plate reader. Non-specific binding is determined by the addition of 10 μM cold L-691,831 compound.
In general terms: Scintillation proximity formats need no separation of bound from free tracer.

Bounds are passed on as bounds.

What is called IC50 is the concentration needed to halve the response being measured.

On to `CC(C)C(C)(c1ccc(-c2cnc(N)nc2)cc1)c1cn(Cc2ccccn2)c2c(F)cccc12` (centres unmarked) [Example 41, 5-(4-{2-[7-fluoro-1-(pyridin-2-ylmethyl)-1H-indol-3-yl]-3-methylbutan-2-yl}phenyl)pyrimidin-2-amine], for which the IC50 in test [1] was determined as 1300 nM; in test [2], 3.4 nM.
For `Nc1ncc(-c2ccc(C3(c4ncc(-c5cn[nH]c5)s4)CCC3)cc2)cn1` [Example 178, 5-(4-{1-[5-(1H-pyrazol-4-yl)-1,3-thiazol-2-yl]cyclobutyl}phenyl)pyrimidin-2-amine], in that order: 81 nM and 2.9 nM.
For `CC(C)C(C)(c1ccc(-c2cnc(N)nc2)cc1)c1cn(Cc2ccccn2)c2cc(F)ccc12` (centres unmarked) [Example 49, 5-(4-{2-[6-fluoro-1-(pyridin-2-ylmethyl)-1H-indol-3-yl]-3-methylbutan-2-yl}phenyl)pyrimidin-2-amine], in that order: 810 nM and 2 nM.
For `Cc1ccc(-c2cnc(C3(c4ccc(-c5cnc(N)nc5)cc4)CCC3)o2)cn1` [Example 16, 5-(4-{1-[5-(6-methylpyridin-3-yl)-1,3-oxazol-2-yl]cyclobutyl}phenyl)pyrimidin-2-amine], in that order: 1400 nM and 7.1 nM.
`COc1cncc(-c2ccc(C(c3ncc(-c4ccc(CO)nc4)s3)C(C)C)cc2)c1` (centres unmarked) [Example 25, [5-(2-{1-[4-(5-methoxypyridin-3-yl)phenyl]-2-methylpropyl}-1,3-thiazol-5-yl)pyridin-2-yl]methanol]: the figures for the IC50 in test [1] and in test [2] were more than 5000 nM and 36 nM, respectively.
For `CCc1nc(CN(C)C(=O)c2cccc3c(C4(c5ccc(-c6cnc(N)nc6)cc5)CCC4)c[nH]c23)no1` [Example 10, 3-{1-[4-(2-aminopyrimidin-5-yl)phenyl]cyclobutyl}-N-[(5-ethyl-1,2,4-oxadiazol-3-yl)methyl]-N-methyl-1H-indole-7-carboxamide], in that order: 340 nM and 2.4 nM.
For `Cn1ccc(C(O)(c2ccc(-c3cnc(N)nc3)cc2)C(C)(C)C)n1` (centres unmarked) [Example 72, 1-[4-(2-aminopyrimidin-5-yl)phenyl]-2,2-dimethyl-1-(1-methyl-1H-pyrazol-3-yl)propan-1-ol], in that order: 2100 nM and 110 nM.
For `Cc1ccc(-c2coc(C3(c4ccc(-c5cnc(N)nc5)cc4)CCC3)n2)cn1` [Example 8, 5-(4-{1-[4-(6-methylpyridin-3-yl)-1,3-oxazol-2-yl]cyclobutyl}phenyl)pyrimidin-2-amine], in that order: 410 nM and 2.8 nM.
In the case of `CC(C)(O)Cn1cc(-c2coc([C@](C)(c3ccc(-c4cnc(N)nc4)cc3)C3CC3)n2)cn1` [Example 204, 1-[4-(2-{(S)-1-[4-(2-Amino-pyrimidin-5-yl)-phenyl]-1-cyclopropyl-ethyl}-oxazol-4-yl)-pyrazol-1-yl]-2-methyl-propan-2-ol], the IC50 came to 1500 nM in test [1] and 560 nM in test [2].
For `COC(=O)c1cc(Br)c(C2(c3ccc(-c4cnc(N)nc4)cc3)CCC2)n1C` [Example 177, methyl 5-{1-[4-(2-aminopyrimidin-5-yl)phenyl]cyclobutyl}-4-bromo-1-methyl-1H-pyrrole-2-carboxylate], in that order: 1800 nM and 42 nM.
The corresponding values for `CC(C)[C@@](C)(c1ccc(-c2cnc(N)nc2)nc1)c1cc(-c2cnn(C)c2)on1` [Example 192, 5-(5-{(2S)-3-methyl-2-[5-(1-methyl-1H-pyrazol-4-yl)-1,2-oxazol-3-yl]butan-2-yl}pyridin-2-yl)pyrimidin-2-amine] are 1900 nM and 210 nM.
The corresponding values for `Cn1cc(C(c2ccc(-c3cnc(N)nc3)nc2)C(C)(C)C)c2ccccc21` (centres unmarked) [Example 122, 5-{5-[2,2-dimethyl-1-(1-methyl-1H-indol-3-yl)propyl]pyridin-2-yl}pyrimidin-2-amine] are more than 5000 nM and 75 nM.
Turning to `Cc1ccc(-c2cc(C(C)(c3ccc(-c4cnc(N)nc4)nc3)C(C)C)[nH]n2)cn1` (centres unmarked) [Example 160, 5-(5-{3-methyl-2-[5-(6-methylpyridin-3-yl)-1H-pyrazol-3-yl]butan-2-yl}pyridin-2-yl)pyrimidin-2-amine], the IC50 in test [1] came out at 1400 nM; in test [2], 8.4 nM.
The corresponding values for `CC(C)C(C)(c1ccc(-c2cnc(N)nc2)cc1)c1nnc(-c2ccccc2)o1` (centres unmarked) [Example 97, 5-{4-[3-methyl-2-(5-phenyl-1,3,4-oxadiazol-2-yl)butan-2-yl]phenyl}pyrimidin-2-amine] are 4100 nM and 14 nM.
For `COCC(C)(c1ccc(-c2cnc(N)nc2)cc1)c1cn(C)c2ncccc12` (centres unmarked) [Example 56, 5-{4-[1-methoxy-2-(1-methyl-1H-pyrrolo[2,3-b]pyridin-3-yl)propan-2-yl]phenyl}pyrimidin-2-amine], in that order: more than 5000 nM and 160 nM.
Regarding `Nc1ncc(-c2ccc(C3(c4c[nH]c5c(C(=O)N6CCC(O)C6)cccc45)CCC3)cc2)cn1` (centres unmarked) [Example 107, (3-{1-[4-(2-aminopyrimidin-5-yl)phenyl]cyclobutyl}-1H-indol-7-yl)(3-hydroxypyrrolidin-1-yl)methanone], the results for the IC50 in test [1] and in test [2] were 180 nM and 1.2 nM, respectively.
For `COc1cncc(-c2ccc(C(c3ncc(Br)s3)C(C)C)cc2)c1` (centres unmarked) [Example 24, 5-bromo-2-[1-[4-(5-methoxy-3-pyridyl)phenyl]-2-methyl-propyl]thiazole], in that order: more than 5000 nM and 890 nM.
For `Cc1ccc(-c2cc(C3(c4ccc(-c5cnc(N)nc5)cc4)CCC3)no2)cn1` [Example 158, 5-(4-{1-[5-(6-methylpyridin-3-yl)-1,2-oxazol-3-yl]cyclobutyl}phenyl)pyrimidin-2-amine], in that order: 430 nM and 5.2 nM.
The corresponding values for `CC(C)C(C)(c1ccc(OCc2ccccn2)cc1)c1c[nH]c2cc(C(=O)O)ccc12` (centres unmarked) [Example 64, 3-[1,2-dimethyl-1-[4-(2-pyridylmethoxy)phenyl]propyl]-1H-indole-6-carboxylic acid] are 1400 nM and 0.85 nM.
In the case of `Nc1ncc(-c2ccc(C3(c4nc(-c5cccnc5)no4)CCC3)cc2)cn1` [Example 92, 5-(4-{1-[3-(pyridin-3-yl)-1,2,4-oxadiazol-5-yl]cyclobutyl}phenyl)pyrimidin-2-amine], the IC50 in test [1] is 840 nM; in test [2] it was 9.1 nM.
The corresponding values for `Cc1ccc(-c2cnc(C3(c4ccc(-c5cnc(N)nc5)cc4)CCC3)s2)cn1` [Example 15, 5-(4-{1-[5-(6-methylpyridin-3-yl)-1,3-thiazol-2-yl]cyclobutyl}phenyl)pyrimidin-2-amine] are 220 nM and 1.8 nM.
The corresponding values for `Cn1cc(C(c2ccc(-c3cnc(N)nc3)cn2)C(C)(C)C)c2ccccc21` (centres unmarked) [Example 156, 5-{6-[2,2-dimethyl-1-(1-methyl-1H-indol-3-yl)propyl]pyridin-3-yl}pyrimidin-2-amine] are more than 5000 nM and 260 nM.
On to `CC(C)C(C)(c1ccc(-c2ccc(N)nc2)cc1)c1c[nH]c2ccccc12` (centres unmarked) [Example 66, 5-{4-[2-(1H-indol-3-yl)-3-methylbutan-2-yl]phenyl}pyridin-2-amine], for which the IC50 in test [1] turned out to be 170 nM; in test [2], 1.2 nM.
The corresponding values for `Nc1ncc(-c2ccc(C3(c4c[nH]c5c(C(=O)N6CC(O)C6)cccc45)CCC3)cc2)cn1` [Example 113, (3-{1-[4-(2-aminopyrimidin-5-yl)phenyl]cyclobutyl}-1H-indol-7-yl)(3-hydroxyazetidin-1-yl)methanone] are 100 nM and 1.1 nM.
The corresponding values for `c1cnc2[nH]cc(C3(c4ccc(-c5cnc6[nH]ccc6c5)cc4)CCC3)c2c1` [Example 130, 3-{1-[4-(1H-pyrrolo[2,3-b]pyridin-5-yl)phenyl]cyclobutyl}-1H-pyrrolo[2,3-b]pyridine] are 140 nM and 1.5 nM.

Values taken from patent US9174980B2, “Heterocyclic compounds as inhibitors of leukotriene production” (Boehringer Ingelheim International GmbH, priority 2012, dated 2015).
